Reference: the NIST ThermoML archive (doi:10.1016/j.jct.2011.01.014)
Numbers after ± are expanded uncertainties.

Assay: xn = mol fraction of the nth substance listed
Conditions: 101 kPa, Liquid; for mass density: Vibrating tube method; for speed of sound: sound velocity cell

CC(=O)[O-].[NH3+]CCO [2-hydroxyethylammonium acetate] + CO showed a mass density (315.65 K, x1 = 0.6007) of 1077.07 ± 0.99 kg/m3, a mass density (315.65 K, x1 = 0.6711) of 1091.61 ± 1.2 kg/m3 and a mass density (315.65 K, x1 = 0.7797) of 1110.6 ± 1.6 kg/m3. For the same molecule, the mass density (315.65 K, x1 = 0.8297) was 1118.54 ± 1.8 kg/m3, the mass density (315.65 K, x1 = 0.9328) was 1132.26 ± 2.2 kg/m3 and the mass density (315.65 K, x1 = 1) was 1139.18 ± 2.5 kg/m3. It also gave a speed of sound (315.65 K, x1 = 0.0492) of 1130.1 ± 1.9 m/s, a speed of sound (315.65 K, x1 = 0.0951) of 1194.7 ± 1.7 m/s and a speed of sound (315.65 K, x1 = 0.1987) of 1313.1 ± 1.7 m/s. It also gave a speed of sound (315.65 K, x1 = 0.29) of 1402.7 ± 1.8 m/s, a speed of sound (315.65 K, x1 = 0.3786) of 1475 ± 1.9 m/s and a speed of sound (315.65 K, x1 = 0.4825) of 1551.4 ± 2 m/s. For the same molecule, the speed of sound (315.65 K, x1 = 0.6007) was 1621.4 ± 2.3 m/s, the speed of sound (315.65 K, x1 = 0.6711) was 1658.5 ± 2.4 m/s and the speed of sound (315.65 K, x1 = 0.7797) was 1678 ± 2.6 m/s. The speed of sound (315.65 K, x1 = 0.8297) was 1731.2 ± 2.8 m/s, the speed of sound (315.65 K, x1 = 0.9328) was 1728.4 ± 3 m/s and the speed of sound (315.65 K, x1 = 1) was 1751.9 ± 3.2 m/s. For the same molecule, the mass density (318.15 K, x1 = 0.0492) was 823.867 ± 1.1 kg/m3, the mass density (318.15 K, x1 = 0.0951) was 866.652 ± 0.74 kg/m3 and the mass density (318.15 K, x1 = 0.1987) was 935.943 ± 0.63 kg/m3. For the same molecule, the mass density (318.15 K, x1 = 0.29) was 981.405 ± 0.53 kg/m3, the mass density (318.15 K, x1 = 0.3786) was 1014.8 ± 0.55 kg/m3 and the mass density (318.15 K, x1 = 0.4825) was 1047.21 ± 0.71 kg/m3. The mass density (318.15 K, x1 = 0.6007) was 1075.56 ± 0.98 kg/m3, the mass density (318.15 K, x1 = 0.6711) was 1090.14 ± 1.2 kg/m3 and the mass density (318.15 K, x1 = 0.7797) was 1109.14 ± 1.6 kg/m3. It also gave a mass density (318.15 K, x1 = 0.8297) of 1117.15 ± 1.7 kg/m3, a mass density (318.15 K, x1 = 0.9328) of 1130.88 ± 2.2 kg/m3 and a mass density (318.15 K, x1 = 1) of 1137.82 ± 2.5 kg/m3. The speed of sound (318.15 K, x1 = 0.0492) was 1122.4 ± 1.9 m/s, the speed of sound (318.15 K, x1 = 0.0951) was 1187.2 ± 1.7 m/s and the speed of sound (318.15 K, x1 = 0.1987) was 1306 ± 1.7 m/s. It also gave a speed of sound (318.15 K, x1 = 0.29) of 1396.1 ± 1.8 m/s, a speed of sound (318.15 K, x1 = 0.3786) of 1468.6 ± 1.9 m/s and a speed of sound (318.15 K, x1 = 0.4825) of 1545.3 ± 2 m/s. The speed of sound (318.15 K, x1 = 0.6007) was 1615.5 ± 2.3 m/s, the speed of sound (318.15 K, x1 = 0.6711) was 1652.7 ± 2.4 m/s and the speed of sound (318.15 K, x1 = 0.7797) was 1672.5 ± 2.6 m/s. It also gave a speed of sound (318.15 K, x1 = 0.8297) of 1725.7 ± 2.8 m/s, a speed of sound (318.15 K, x1 = 0.9328) of 1723 ± 3 m/s and a speed of sound (318.15 K, x1 = 1) of 1746.5 ± 3.2 m/s. It also gave a mass density (320.65 K, x1 = 0.0492) of 821.611 ± 1.1 kg/m3, a mass density (320.65 K, x1 = 0.0951) of 864.531 ± 0.74 kg/m3 and a mass density (320.65 K, x1 = 0.1987) of 934.029 ± 0.63 kg/m3. For the same molecule, the mass density (320.65 K, x1 = 0.29) was 979.623 ± 0.53 kg/m3, the mass density (320.65 K, x1 = 0.3786) was 1013.12 ± 0.55 kg/m3 and the mass density (320.65 K, x1 = 0.4825) was 1045.59 ± 0.7 kg/m3. For the same molecule, the mass density (320.65 K, x1 = 0.6007) was 1074.05 ± 0.98 kg/m3, the mass density (320.65 K, x1 = 0.6711) was 1088.66 ± 1.2 kg/m3 and the mass density (320.65 K, x1 = 0.7797) was 1107.66 ± 1.6 kg/m3. It also gave a mass density (320.65 K, x1 = 0.8297) of 1115.77 ± 1.7 kg/m3, a mass density (320.65 K, x1 = 0.9328) of 1129.49 ± 2.2 kg/m3 and a mass density (320.65 K, x1 = 1) of 1136.45 ± 2.5 kg/m3. The speed of sound (320.65 K, x1 = 0.0492) was 1114.8 ± 1.9 m/s, the speed of sound (320.65 K, x1 = 0.0951) was 1179.8 ± 1.7 m/s and the speed of sound (320.65 K, x1 = 0.1987) was 1299.1 ± 1.7 m/s. For the same molecule, the speed of sound (320.65 K, x1 = 0.29) was 1389.4 ± 1.8 m/s, the speed of sound (320.65 K, x1 = 0.3786) was 1462.3 ± 1.9 m/s and the speed of sound (320.65 K, x1 = 0.4825) was 1539.3 ± 2 m/s. The speed of sound (320.65 K, x1 = 0.6007) was 1609.6 ± 2.3 m/s, the speed of sound (320.65 K, x1 = 0.6711) was 1646.9 ± 2.4 m/s and the speed of sound (320.65 K, x1 = 0.7797) was 1667 ± 2.6 m/s. The speed of sound (320.65 K, x1 = 0.8297) was 1720.2 ± 2.8 m/s, the speed of sound (320.65 K, x1 = 0.9328) was 1717.6 ± 3 m/s and the speed of sound (320.65 K, x1 = 1) was 1741.3 ± 3.2 m/s. The mass density (323.15 K, x1 = 0.0492) was 819.344 ± 1.1 kg/m3, the mass density (323.15 K, x1 = 0.0951) was 862.394 ± 0.76 kg/m3 and the mass density (323.15 K, x1 = 0.1987) was 932.105 ± 0.64 kg/m3. It also gave a mass density (323.15 K, x1 = 0.29) of 977.831 ± 0.54 kg/m3, a mass density (323.15 K, x1 = 0.3786) of 1011.42 ± 0.55 kg/m3 and a mass density (323.15 K, x1 = 0.4825) of 1043.94 ± 0.7 kg/m3. It also gave a mass density (323.15 K, x1 = 0.6007) of 1072.54 ± 0.98 kg/m3, a mass density (323.15 K, x1 = 0.6711) of 1087.18 ± 1.2 kg/m3 and a mass density (323.15 K, x1 = 0.7797) of 1106.19 ± 1.5 kg/m3. The mass density (323.15 K, x1 = 0.8297) was 1114.37 ± 1.7 kg/m3, the mass density (323.15 K, x1 = 0.9328) was 1128.1 ± 2.2 kg/m3 and the mass density (323.15 K, x1 = 1) was 1135.08 ± 2.5 kg/m3. The speed of sound (323.15 K, x1 = 0.0492) was 1107 ± 2 m/s, the speed of sound (323.15 K, x1 = 0.0951) was 1172.3 ± 1.7 m/s and the speed of sound (323.15 K, x1 = 0.1987) was 1292.1 ± 1.8 m/s. For the same molecule, the speed of sound (323.15 K, x1 = 0.29) was 1382.7 ± 1.8 m/s, the speed of sound (323.15 K, x1 = 0.3786) was 1455.9 ± 1.9 m/s and the speed of sound (323.15 K, x1 = 0.4825) was 1533.2 ± 2 m/s. For the same molecule, the speed of sound (323.15 K, x1 = 0.6007) was 1603.7 ± 2.3 m/s, the speed of sound (323.15 K, x1 = 0.6711) was 1641.1 ± 2.4 m/s and the speed of sound (323.15 K, x1 = 0.7797) was 1661.7 ± 2.7 m/s. For the same molecule, the speed of sound (323.15 K, x1 = 0.8297) was 1714.7 ± 2.8 m/s, the speed of sound (323.15 K, x1 = 0.9328) was 1712.3 ± 3 m/s and the speed of sound (323.15 K, x1 = 1) was 1736 ± 3.2 m/s.
